We go through one compound from PMC10970734, “Identification of an Intravenous Injectable NK1 Receptor Antagonist for Use in Traumatic Brain Injury” (International Journal of Molecular Sciences, 2024).

Values after ≈ are worked out from the molar mass of the structure shown. Like-named read-outs stand apart in the source and are kept apart here.

One data set in a line: Aqueous solubility. It counts as physicochemical. Conditions: water.
The next data set concerns the target T1, central NK1Rs (Meriones unguiculatus, UniProt Q5DUB1).
T1 construct: antagonize central NK1Rs in vivo; from tissue; host or cells: brain of living Mongolian gerbils (in vivo)
The data set can be described thus: Gerbil foot-tapping response induced by icv GR73632. It counts as in vivo, Mongolian Gerbils. From the text:
The ability of EUC-001 to antagonize central NK1Rs in vivo was examined using the gerbil foot-tapping response. The hind-foot-tapping response is a species-specific, CNS-mediated reaction that occurs in response to fear-evoking situations or aversive stimuli. The same, stereotyped response can be induced by the intracerebroventricular (icv) injection of a selective NK1 receptor agonist, such as GR73632 [59]. In turn, this NK1R-mediated response can be inhibited by centrally acting NK1R antagonists, as well as other anxiolytic agents. Animals were pretreated with a range of concentrations of EUC-001 2 h prior to the icv administration of the NK1R agonist, GR73632.
Female Mongolian Gerbils weighing 30–60 g were administered drug vehicle or a predetermined dose of EUC-001 either orally (po) at a volume of 5 mL/kg or intravenously (iv) at a volume of 1 mL/kg. […] Following recovery from the anesthesia (recovery of the righting reflex), a 5 min observation period was allocated per study and the amount of time gerbils spent tapping their hind paws was measured.

A further data set relates to rodent model of TBI. The data set can be described thus: Cerebral oedema after TBI, wet weight-dry weight method. Format: in vivo, Sprague Dawley rats. Conditions: rat TBI, 10 mg/kg 30 min post-injury, tissues 6 h post-injury. On the procedure:
The BBB dysfunction that follows acute CNS injuries can contribute to significant complications, such as cerebral oedema and raised intracranial pressure (ICP). The development of cerebral oedema was assessed using the wet weight–dry weight method, with tissues collected 6 h post-injury.
Injury was induced in halothane-anesthetized (ProVet) male Sprague Dawley rats (400 ± 20 g) using acceleration-induced impact TBI [29, 93]. This model involves impacting a 10 mm diameter, 3 mm thick stainless steel disc fixed centrally to the exposed skull between the lambda and bregma with an accelerating impactor. The impactor was a 450 g brass weight dropped from a height of 2 m. Earlier studies have shown that the impact acceleration injury produces diffuse axonal injury, oedema, BBB opening, Mg^2+ decline, and moderate-to-severe neurologic deficits. All animals were fed and watered ad libitum before the induction of injury. During both surgery and the immediate recovery phase, rat rectal temperature was maintained using a thermostatically controlled heating pad. […] Blood pressure was monitored, both before and after injury, using a femoral arterial line. […]
The amount of oedema development was calculated using the wet weight–dry weight method. […] Edema in each brain sample was calculated using the wet–dry method formula:%Water = (Wet Weight − Dry Weight)/Wet Weight × 100

T1 sequence (Q5DUB1 whole entry): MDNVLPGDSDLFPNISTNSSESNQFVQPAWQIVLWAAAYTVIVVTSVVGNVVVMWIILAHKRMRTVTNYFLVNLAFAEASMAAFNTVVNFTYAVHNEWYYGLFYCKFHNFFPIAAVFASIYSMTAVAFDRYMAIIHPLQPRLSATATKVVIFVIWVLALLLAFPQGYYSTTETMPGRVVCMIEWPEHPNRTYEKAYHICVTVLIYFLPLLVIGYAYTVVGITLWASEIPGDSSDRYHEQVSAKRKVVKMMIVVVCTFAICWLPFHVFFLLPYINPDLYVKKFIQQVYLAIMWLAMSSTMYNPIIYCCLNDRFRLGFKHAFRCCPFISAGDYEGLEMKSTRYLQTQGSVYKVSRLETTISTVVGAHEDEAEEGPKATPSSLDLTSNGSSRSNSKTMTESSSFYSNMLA

For the compound `Cc1ccccc1-c1cc(N2CCN(C)CC2)ncc1C(=O)N(C)Cc1cc(C(F)(F)F)cc(C(F)(F)F)c1` [EUC-001, N-(3,5-Bis-trifluoromethyl-benzyl)-N-methyl-6-(4-methyl-piperazine-1-yl)-4-o-tolyl-nicotinamide], the solubility (in general, the dissolved amount per volume that the medium holds) in “Aqueous solubility” (free base) came to 0.5 mg/mL (≈ 908 µM); in the data set “Aqueous solubility” (hydrochloride salt), 1.5 mg/mL. The ED50 at central NK1Rs (iv administration, icv GR73632, read-out: IC50 dose, inhibition of foot-tapping response) came to 0.68 mg/kg; at central NK1Rs (oral administration (po), icv GR73632 3 pmol/5 µL, read-out: IC50 dose, inhibition of foot-tapping response), 0.89 mg/kg. Also, the “Brain tissue water content (cerebral oedema)” value in the data set with rodent model of TBI is “not significantly different from sham”.
